According to paper PMC4447944 (The Journal of Biological Chemistry, 2015):
pIC50: −log10 of the molar value.

Tests used:
hDRAK2 = molecular target: T1, hDRAK2 (Homo sapiens, UniProt O94768); test: KINOMEscan; format: binding
T1 construct: purchased DiscoverX

hRIPK4 = molecular target: T2, hRIPK4 (Homo sapiens, UniProt P57078); test: KINOMEscan; format: binding
T2 construct: purchased DiscoverX (KINOMEscan platform)

hHPK1 = molecular target: T3, hHPK1 (Homo sapiens, UniProt Q92918); test: KINOMEscan; format: binding
T3 construct: purchased DiscoverX (KINOMEscan panel)
T3 sequence (Q92918 whole entry): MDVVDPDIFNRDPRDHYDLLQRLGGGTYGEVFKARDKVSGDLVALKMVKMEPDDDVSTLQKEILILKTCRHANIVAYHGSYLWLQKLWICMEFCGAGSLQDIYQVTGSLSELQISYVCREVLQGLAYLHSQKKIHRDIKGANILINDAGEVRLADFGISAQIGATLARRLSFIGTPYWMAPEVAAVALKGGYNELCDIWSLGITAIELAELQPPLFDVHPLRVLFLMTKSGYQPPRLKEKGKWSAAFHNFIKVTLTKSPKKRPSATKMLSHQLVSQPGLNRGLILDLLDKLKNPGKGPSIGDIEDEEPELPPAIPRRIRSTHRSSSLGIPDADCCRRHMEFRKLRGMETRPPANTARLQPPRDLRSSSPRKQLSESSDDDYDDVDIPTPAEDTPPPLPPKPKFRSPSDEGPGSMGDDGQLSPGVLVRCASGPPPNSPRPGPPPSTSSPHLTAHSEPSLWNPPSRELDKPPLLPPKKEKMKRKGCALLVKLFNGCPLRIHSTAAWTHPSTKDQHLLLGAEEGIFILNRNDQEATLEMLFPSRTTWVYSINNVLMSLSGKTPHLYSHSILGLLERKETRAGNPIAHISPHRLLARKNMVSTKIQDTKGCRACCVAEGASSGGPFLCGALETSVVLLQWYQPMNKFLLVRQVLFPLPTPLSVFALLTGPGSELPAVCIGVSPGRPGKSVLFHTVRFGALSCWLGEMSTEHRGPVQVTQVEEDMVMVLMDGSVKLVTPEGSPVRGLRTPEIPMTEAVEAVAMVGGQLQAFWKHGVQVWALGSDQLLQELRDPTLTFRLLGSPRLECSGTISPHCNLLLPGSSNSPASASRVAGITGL

hCSNK1G1 = molecular target: T4, hCSNK1G1 (Homo sapiens, UniProt Q9HCP0); test: KINOMEscan; format: binding
T4 construct: purchased DiscoverX (KINOMEscan platform)
T4 sequence (Q9HCP0 whole entry): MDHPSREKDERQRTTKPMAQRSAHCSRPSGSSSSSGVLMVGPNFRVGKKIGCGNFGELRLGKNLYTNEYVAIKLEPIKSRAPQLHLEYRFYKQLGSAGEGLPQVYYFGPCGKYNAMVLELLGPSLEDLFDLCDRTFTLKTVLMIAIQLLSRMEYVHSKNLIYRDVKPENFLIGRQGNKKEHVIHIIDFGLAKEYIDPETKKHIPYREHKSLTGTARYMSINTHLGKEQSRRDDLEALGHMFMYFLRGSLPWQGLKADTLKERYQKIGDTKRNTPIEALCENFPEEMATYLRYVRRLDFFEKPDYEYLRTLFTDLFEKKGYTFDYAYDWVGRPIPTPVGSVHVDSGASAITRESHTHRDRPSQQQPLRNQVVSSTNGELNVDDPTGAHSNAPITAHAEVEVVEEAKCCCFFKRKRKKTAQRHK

hCLK2 = molecular target: T5, hCLK2 (Homo sapiens, UniProt P49760); test: KINOMEscan; format: binding
T5 construct: purchased DiscoverX

hERK2 = molecular target: T6, hERK2 (Homo sapiens, UniProt P28482); test: KINOMEscan; format: binding
T6 construct: purchased DiscoverX

hD1 = hD1 (Homo sapiens, UniProt P21728); test: β-arrestin Antagonist (Eurofins-CEREP); settings: read-out: % Effect, Inhibition
hSGK3 = molecular target: T7, hSGK3 (Homo sapiens, UniProt Q96BR1); test: KINOMEscan; format: binding
T7 construct: purchased DiscoverX (KINOMEscan platform)

hKIT(V559D) = molecular target: T8, hKIT(V559D) (Homo sapiens, UniProt P10721, V559D); test: KINOMEscan; format: binding
T8 construct: purchased DiscoverX (KINOMEscan platform)

hCDKL5 = molecular target: T9, hCDKL5 (Homo sapiens, UniProt O76039); test: KINOMEscan; format: binding
T9 construct: purchased DiscoverX

hADRα2A = molecular target: T10, hADRα2A (Homo sapiens, UniProt P08913); test: cAMP Potentiation (Eurofins-CEREP); settings: @ 10 μM
T10 sequence (P08913 1-465): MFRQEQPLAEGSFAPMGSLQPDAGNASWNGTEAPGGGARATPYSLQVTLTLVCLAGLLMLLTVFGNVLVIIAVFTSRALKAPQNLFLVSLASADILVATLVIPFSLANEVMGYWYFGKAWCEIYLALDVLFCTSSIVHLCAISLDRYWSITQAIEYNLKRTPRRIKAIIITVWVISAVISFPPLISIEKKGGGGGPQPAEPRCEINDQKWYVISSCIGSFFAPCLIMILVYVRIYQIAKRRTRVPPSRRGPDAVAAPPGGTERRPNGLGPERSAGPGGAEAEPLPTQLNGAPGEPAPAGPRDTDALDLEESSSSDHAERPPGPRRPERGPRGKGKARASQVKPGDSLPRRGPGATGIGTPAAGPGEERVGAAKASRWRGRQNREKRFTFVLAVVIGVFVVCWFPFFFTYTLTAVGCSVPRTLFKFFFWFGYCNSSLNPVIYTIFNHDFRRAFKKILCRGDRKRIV

hFLT4 = molecular target: T11, hFLT4 (Homo sapiens, UniProt P35916); test: KINOMEscan; format: binding
T11 construct: purchased DiscoverX
T11 sequence (P35916 25-1363): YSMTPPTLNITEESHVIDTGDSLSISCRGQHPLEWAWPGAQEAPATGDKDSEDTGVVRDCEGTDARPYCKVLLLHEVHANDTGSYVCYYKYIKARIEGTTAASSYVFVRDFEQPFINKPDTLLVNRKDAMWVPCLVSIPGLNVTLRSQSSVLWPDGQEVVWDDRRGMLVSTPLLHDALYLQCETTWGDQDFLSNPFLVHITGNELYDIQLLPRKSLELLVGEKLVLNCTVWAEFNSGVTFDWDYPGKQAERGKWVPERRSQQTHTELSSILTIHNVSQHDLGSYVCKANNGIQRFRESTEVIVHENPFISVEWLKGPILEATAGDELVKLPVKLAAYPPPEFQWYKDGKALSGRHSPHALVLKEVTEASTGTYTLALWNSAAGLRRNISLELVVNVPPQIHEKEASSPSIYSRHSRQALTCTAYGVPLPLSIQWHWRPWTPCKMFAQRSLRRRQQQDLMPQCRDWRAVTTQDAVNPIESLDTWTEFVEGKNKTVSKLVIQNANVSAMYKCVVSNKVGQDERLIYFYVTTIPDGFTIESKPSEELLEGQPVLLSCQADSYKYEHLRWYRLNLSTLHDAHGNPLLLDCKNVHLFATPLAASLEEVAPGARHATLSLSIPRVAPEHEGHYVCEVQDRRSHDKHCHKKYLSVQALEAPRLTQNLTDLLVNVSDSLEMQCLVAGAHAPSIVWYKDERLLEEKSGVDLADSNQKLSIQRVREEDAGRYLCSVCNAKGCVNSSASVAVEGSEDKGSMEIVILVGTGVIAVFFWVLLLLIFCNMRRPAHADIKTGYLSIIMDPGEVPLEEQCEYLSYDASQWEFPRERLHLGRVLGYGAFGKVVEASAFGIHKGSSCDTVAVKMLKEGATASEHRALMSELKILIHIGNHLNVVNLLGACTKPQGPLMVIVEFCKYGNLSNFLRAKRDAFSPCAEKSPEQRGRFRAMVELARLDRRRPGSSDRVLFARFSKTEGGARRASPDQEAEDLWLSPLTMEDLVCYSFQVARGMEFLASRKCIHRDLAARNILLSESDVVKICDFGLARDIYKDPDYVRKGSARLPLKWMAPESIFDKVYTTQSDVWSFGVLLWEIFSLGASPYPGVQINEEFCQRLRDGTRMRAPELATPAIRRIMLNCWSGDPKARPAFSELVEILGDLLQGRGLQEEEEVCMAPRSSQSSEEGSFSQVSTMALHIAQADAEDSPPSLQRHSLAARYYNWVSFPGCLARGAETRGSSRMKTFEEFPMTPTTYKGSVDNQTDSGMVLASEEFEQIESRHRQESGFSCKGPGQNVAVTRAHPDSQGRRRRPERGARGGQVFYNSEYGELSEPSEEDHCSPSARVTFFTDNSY

hKIT = molecular target: T12, hKIT (Homo sapiens, UniProt P10721); test: KINOMEscan; format: binding
T12 construct: purchased DiscoverX (KINOMEscan panel)

[1] = tested on: lysine methylation of histone H3 or H4; test: Mass spectrometry proteomics of cell-derived histones, SMYD2-overexpressing KYSE-150 cells; format: cell-based, human; settings: 5 μM LLY-507 versus untreated cells
Method: Acid-extracted histone samples were chemically derivatized using propionic anhydride and digested with trypsin for 6 h at 37 °C. The digested peptides were treated with an additional round of propionylation and desalted using a C18 extracted mini disk (Empore 3M). Approximately 1 μg of each sample was loaded via an autosampler (Eksigent NanoLC.Ultra 2D Plus) onto a homemade precolumn (3-μm particle size, 120-Å pore size) at a flow rate of 2 μl/min. Peptides were chromatographically resolved via a 75-μm reversed phase analytical column packed with C18-AQ resin (1.9-μm particle size, 120-Å pore size) using a 77-min 2–98% solvent B gradient (solvent A, 0.1% formic acid; solvent B, 100% acetonitrile) at a flow rate of 250 nl/min. The electrosprayed peptides were detected by an Orbitrap Elite^TM mass spectrometer (Thermo Fisher Scientific) with a resolution of 120,000 for full MS spectrum followed by MS/MS spectra obtained in the ion trap. The relative abundance of each modification, expressed as a percentage on a histone peptide sequence, was quantified by analyzing its MS and MS/MS spectra via Epiquant, an in-house software.

hSRPK2 = molecular target: T13, hSRPK2 (Homo sapiens, UniProt P78362); test: KINOMEscan; format: binding
T13 construct: purchased DiscoverX (KINOMEscan platform)
T13 sequence (P78362 whole entry): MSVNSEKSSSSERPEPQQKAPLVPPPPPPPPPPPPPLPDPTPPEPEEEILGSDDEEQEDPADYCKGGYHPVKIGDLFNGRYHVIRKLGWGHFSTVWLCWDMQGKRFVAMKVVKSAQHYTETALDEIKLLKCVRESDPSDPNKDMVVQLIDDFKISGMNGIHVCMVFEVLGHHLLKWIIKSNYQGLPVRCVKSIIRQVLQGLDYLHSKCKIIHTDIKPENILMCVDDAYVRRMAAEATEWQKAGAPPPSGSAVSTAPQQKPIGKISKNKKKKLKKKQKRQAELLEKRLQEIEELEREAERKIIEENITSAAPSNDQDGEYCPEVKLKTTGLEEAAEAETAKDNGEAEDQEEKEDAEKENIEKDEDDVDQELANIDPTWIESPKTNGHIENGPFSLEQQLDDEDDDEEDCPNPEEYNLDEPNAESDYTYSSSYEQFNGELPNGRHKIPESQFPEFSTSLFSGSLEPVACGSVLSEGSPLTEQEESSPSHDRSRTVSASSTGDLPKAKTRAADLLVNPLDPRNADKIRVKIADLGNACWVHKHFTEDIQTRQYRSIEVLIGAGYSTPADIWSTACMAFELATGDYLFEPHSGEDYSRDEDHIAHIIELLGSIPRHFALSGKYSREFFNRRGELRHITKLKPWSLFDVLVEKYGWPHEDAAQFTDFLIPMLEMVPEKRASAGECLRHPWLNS

hM2 = molecular target: T14, hM2 (Homo sapiens, UniProt P08172); test: β-arrestin Antagonist (Eurofins-CEREP); settings: read-out: % Effect, Inhibition
T14 sequence (P08172 1-466): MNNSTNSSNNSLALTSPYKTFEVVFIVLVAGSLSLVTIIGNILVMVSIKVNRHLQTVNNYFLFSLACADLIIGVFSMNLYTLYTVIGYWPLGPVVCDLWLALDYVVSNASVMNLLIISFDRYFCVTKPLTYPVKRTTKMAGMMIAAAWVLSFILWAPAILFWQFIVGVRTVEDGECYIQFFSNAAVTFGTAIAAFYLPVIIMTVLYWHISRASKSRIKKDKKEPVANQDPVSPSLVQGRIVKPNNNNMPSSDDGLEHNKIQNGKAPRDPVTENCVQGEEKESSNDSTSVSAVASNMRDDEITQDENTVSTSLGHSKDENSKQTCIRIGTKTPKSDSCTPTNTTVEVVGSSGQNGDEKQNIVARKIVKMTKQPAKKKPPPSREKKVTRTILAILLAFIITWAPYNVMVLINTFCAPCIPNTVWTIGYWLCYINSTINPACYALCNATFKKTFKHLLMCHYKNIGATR

hCSNK1A1L = molecular target: T15, hCSNK1A1L (Homo sapiens, UniProt Q8N752); test: KINOMEscan; format: binding
T15 construct: purchased DiscoverX (KINOMEscan platform)
T15 sequence (Q8N752 whole entry): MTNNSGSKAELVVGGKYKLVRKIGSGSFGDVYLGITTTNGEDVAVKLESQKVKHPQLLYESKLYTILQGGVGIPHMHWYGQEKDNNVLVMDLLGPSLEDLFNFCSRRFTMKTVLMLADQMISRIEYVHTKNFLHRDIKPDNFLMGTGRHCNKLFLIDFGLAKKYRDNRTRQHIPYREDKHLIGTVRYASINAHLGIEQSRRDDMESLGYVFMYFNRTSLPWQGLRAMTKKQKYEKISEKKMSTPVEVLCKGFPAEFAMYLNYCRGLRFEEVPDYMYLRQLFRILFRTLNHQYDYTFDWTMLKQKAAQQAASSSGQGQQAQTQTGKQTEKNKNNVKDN

hGRK4 = molecular target: T16, hGRK4 (Homo sapiens, UniProt P32298); test: KINOMEscan; format: binding
T16 construct: purchased DiscoverX
T16 sequence (P32298 whole entry): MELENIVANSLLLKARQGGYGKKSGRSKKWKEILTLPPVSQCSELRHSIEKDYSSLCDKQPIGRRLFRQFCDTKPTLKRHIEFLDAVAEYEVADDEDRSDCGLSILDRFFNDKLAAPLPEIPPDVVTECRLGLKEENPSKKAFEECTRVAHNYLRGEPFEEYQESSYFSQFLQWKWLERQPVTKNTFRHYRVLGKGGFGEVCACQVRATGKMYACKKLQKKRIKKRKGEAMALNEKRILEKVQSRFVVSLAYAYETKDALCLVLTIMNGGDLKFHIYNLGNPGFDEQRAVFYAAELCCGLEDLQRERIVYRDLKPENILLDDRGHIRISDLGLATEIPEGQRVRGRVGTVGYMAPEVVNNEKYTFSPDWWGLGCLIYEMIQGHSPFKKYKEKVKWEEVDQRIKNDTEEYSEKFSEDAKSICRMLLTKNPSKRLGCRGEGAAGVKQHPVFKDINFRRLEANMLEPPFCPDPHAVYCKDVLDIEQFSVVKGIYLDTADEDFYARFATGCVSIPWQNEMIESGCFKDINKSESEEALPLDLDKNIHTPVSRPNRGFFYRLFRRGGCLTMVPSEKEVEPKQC

hMAK = molecular target: T17, hMAK (Homo sapiens, UniProt P20794); test: KINOMEscan; format: binding
T17 construct: purchased DiscoverX (KINOMEscan platform)

hMAPKAPK5 = molecular target: T18, hMAPKAPK5 (Homo sapiens, UniProt Q8IW41); test: KINOMEscan; format: binding
T18 construct: purchased DiscoverX
T18 sequence (Q8IW41 whole entry): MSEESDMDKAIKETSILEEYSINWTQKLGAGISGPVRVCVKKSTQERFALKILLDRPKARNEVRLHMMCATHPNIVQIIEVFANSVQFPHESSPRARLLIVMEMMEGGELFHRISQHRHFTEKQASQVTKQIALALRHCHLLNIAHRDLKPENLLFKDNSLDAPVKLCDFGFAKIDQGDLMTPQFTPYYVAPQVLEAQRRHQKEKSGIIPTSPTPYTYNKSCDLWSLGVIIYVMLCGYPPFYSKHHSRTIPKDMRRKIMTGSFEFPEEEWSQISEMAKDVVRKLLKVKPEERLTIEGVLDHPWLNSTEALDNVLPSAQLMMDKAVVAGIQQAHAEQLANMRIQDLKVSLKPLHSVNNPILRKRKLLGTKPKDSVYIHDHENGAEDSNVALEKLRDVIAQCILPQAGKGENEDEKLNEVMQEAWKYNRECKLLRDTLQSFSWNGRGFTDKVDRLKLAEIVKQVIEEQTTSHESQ

hDYRK1A = molecular target: T19, hDYRK1A (Homo sapiens, UniProt Q13627); test: KINOMEscan; format: binding
T19 construct: purchased DiscoverX

hRET = molecular target: T20, hRET (Homo sapiens, UniProt P07949); test: KINOMEscan; format: binding
T20 construct: purchased DiscoverX (KINOMEscan platform)

hRSK3(Kin.Dom.2-C-term) = molecular target: T21, hRSK3(Kin.Dom.2-C-term) (Homo sapiens, UniProt Q15349); test: KINOMEscan; format: binding
T21 construct: hRSK3(Kin.Dom.2-C-term); purchased DiscoverX (KINOMEscan platform)

T1 sequence (O94768 whole entry): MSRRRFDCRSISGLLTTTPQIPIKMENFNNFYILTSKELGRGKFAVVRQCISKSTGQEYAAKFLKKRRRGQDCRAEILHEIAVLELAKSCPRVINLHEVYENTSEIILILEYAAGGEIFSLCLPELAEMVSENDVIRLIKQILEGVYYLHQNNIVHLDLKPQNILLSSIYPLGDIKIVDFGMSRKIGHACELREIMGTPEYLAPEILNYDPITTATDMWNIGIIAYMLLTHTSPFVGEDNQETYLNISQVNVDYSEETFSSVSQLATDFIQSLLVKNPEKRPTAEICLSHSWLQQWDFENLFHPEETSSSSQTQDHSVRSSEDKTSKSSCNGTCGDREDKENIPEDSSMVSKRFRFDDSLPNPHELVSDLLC

Cc1cn(CCN2CCN(c3ccccc3-c3cc(C#N)cc(C(=O)NCCCN4CCCC4)c3)CC2)c2ccccc12 [LLY-507, 3-cyano-5-{2-[4-[2-(3-methylindol-1-yl)ethyl]piperazin-1-yl]-phenyl}-N-[(3-pyrrolidin-1-yl)propyl]benzamide]
pIC50 (hDRAK2): < 4.70 | pIC50 (hRIPK4): < 4.70 | pIC50 (hHPK1): < 4.70 | pIC50 (hCSNK1G1): < 4.70 | pIC50 (hCLK2): < 4.70 | pIC50 (hERK2): < 4.70 | inhibition at 10 µM (hD1): 43.4% | pIC50 (hSGK3): < 4.70 | pIC50 (hKIT(V559D)): < 4.70 | pIC50 (hCDKL5): < 4.70 | % Effect, Potentiation (hADRα2A): -20.5% | pIC50 (hFLT4): < 4.70 | pIC50 (hKIT): < 4.70 | change in lysine methylation of histone H3 or H4 [1]: did not show any significant change | pIC50 (hSRPK2): < 4.70 | inhibition at 10 µM (hM2): 36.3% | pIC50 (hCSNK1A1L): < 4.70 | pIC50 (hGRK4): < 4.70 | pIC50 (hMAK): < 4.70 | pIC50 (hMAPKAPK5): < 4.70 | pIC50 (hDYRK1A): < 4.70 | pIC50 (hRET): < 4.70 | pIC50 (hRSK3(Kin.Dom.2-C-term)): < 4.70
